How the values were obtained:
ARPE-19 cells [1] = experiment: Clonogenic survival assay, ARPE-19; type: cell-based, human; conditions: for effect on normal ARPE-19 cell line in detailed clonogenic assay: different concentrations
Procedure: (§1) The human EOC cell lines used (TOV81D, TOV112D, OV90, TOV21G, OV866(2), TOV1369(R), OV1369(R2), TOV1946, OV1946, TOV2295(R), OV4485) were derived in our laboratory from patients' tumors (TOV) or ascites (OV). All EOC cell lines were maintained in a low oxygen condition of 7% O2 and 5% CO2 and grown in OSE medium (Wisent, Montreal, QC) supplemented with 10% FBS (Wisent), 0.5 μg/mL amphotericin B (Wisent) and 50 μg/mL gentamicin (Life Technologies Inc., Burlington, ON). The human retinal epithelial cell line ARPE-19 was purchased from American Type Culture Collection (ATCC, Manassas, Va.) and maintained in DMEM-F12 (Wisent) supplemented with 10% FBS (Wisent), 0.5 μg/mL amphotericin B (Wisent) and 50 μg/mL gentamicin (Life Technologies Inc.).
(§2) Clonogenic assays were performed as previously described. Colonies were counted under a stereo microscope and reported as percent of control. IC50 values were determined using Graph Pad Prism 5 software (GraphPad Software Inc., San Diego, Calif.). Each experiment was performed in duplicate and repeated three times. Sensitivity of the cell lines to small molecules inhibitors of Ran was assessed using a concentration range of 0-50 μM.
(§3) Small molecules inhibitors of Ran were dissolved in 100% dimethyl sulfoxide (DMSO) and then further diluted in complete culture media for in vitro experiments. Drugs were added 24 hours after seeding.

TOV112D cells [2] = experiment: Clonogenic survival assay, TOV112D; type: cell-based, human; conditions: for IC50: Homo sapiens, read-out: IC50 value for the TOV112D cell line by clonogenic assay; for IC50 / IC50 value for the TOV112D cell line by clonogenic assay: TOV112D
Procedure: as §1, §2, §3

Ran-GTP [3] = target: T1, Ran-GTP (Homo sapiens, UniProt P62826); experiment: Ran activation (Ran-GTP pull-down) assay in TOV112D cells; type: cell-based; conditions: 1 hour treatment, vs DMSO
Procedure: Cells were seeded onto 6-well tissue culture plates in such a way that cell confluence reaches approximately 70% the day of experiment. The day of experiment cells were treated for 1 hour with the indicated compounds prior to protein extraction and quantification. Assays were performed using the Ran activation assay kit (Cell Biolabs). Briefly, 400 μg of lysates were incubated for one hour at 4° C. with agarose beads conjugated to RANBP1, which specifically binds Ran-GTP. Beads were pelleted, washed, and re-suspended in SDS-PAGE buffer, followed by immunoblotting with an anti-Ran antibody.

[4] = target: T2, recombinant human Ran protein (Homo sapiens, UniProt P62826); experiment: Surface Plasmon Resonance (SPR) binding to immobilized Ran
T2 construct: Recombinant Ran protein was purchased from Sigma-Aldrich Inc. (R3152)
Procedure: SPR experiments were carried out using the Biacore 3000 system. Recombinant Ran protein was purchased from Sigma-Aldrich Inc. (R3152). The running buffer contained PBS, pH7.4, 1 mM GDP, 2 mM MgCl2 and 0.2% DMSO. The regeneration buffer contained 10 mM glycine (pH 2.5). Ran-GDP protein was immobilized onto a CM5 chip; samples of compounds in running buffer were injected at 30 μL/min for 10 minutes contact time followed by 5 minutes regeneration. Kd was calculated using the GraphPad Prism 5 software.

TOV112D cells [5] = experiment: IncuCyte cell proliferation assay, TOV112D; type: cell-based, human; conditions: for cell growth of TOV112D (new M36 analogs screen): 40 μM
Procedure: as §1
(§4) Cells (2,000 cells/well) were plated in a 96-well plate. The next day, compounds were added at the indicated concentrations. Following treatment, cell confluence was imaged by phase contrast using the IncuCyte live cell monitoring system (Essen BioScience, Ann Arbor, Mich.). Frames were captured at 2-hour intervals using a 10× objective. For Ran knock down experiments, cells were seeded in a 96-well plate (4,000 cells/well) directly after transfection. Cell confluence monitoring started the next day as described above.
as §3

ARPE-19 cells [6] = experiment: IncuCyte cell proliferation assay, ARPE-19; type: cell-based, human; conditions: for cell growth of ARPE-19 (new M36 analogs screen): 40 μM; for effect on normal ARPE-19 cells at low concentrations: 0.5 to 2.5 μM
Procedure: as §1, §4, §3

[7] = test system: breast cancer cell lines (MDA231, MDA468, HCC1806, ZR75, T47D, BT474, HCC1954); experiment: Cell proliferation, breast cancer cell lines; type: cell-based
[8] = Tolerance test in NRG mice; type: in vivo; conditions: daily i.p. 75 mg/kg for 15 days
Procedure: For the tolerance test, M36 and QR20 compounds were dissolved in DMSO 10%, Kolliphor® EL 10%, PEG-400 20% and PBS 60% and injected intraperitoneally into 6-week-old female Nod Rag Gamma (NRG) mice (The Jackson laboratory, Bar Harbor, Me.) daily at 75 mg/kg. During this study, mice (n=3) were monitored for survival and weight loss/gain.

[9] = Pharmacokinetics in CD1 mice; type: in vivo; conditions: 50 mg/kg
Procedure: For the pharmacokinetic studies, 6-week-old female CD1 mice (Charles River laboratories, Senneville, QC, Canada) received a single intravenous or intraperitoneal injection of M36 or QR20 (50 mg/kg), dissolved in DMSO 10%, Kolliphor® EL 10%, PEG-400 20% and PBS 60% (QR20 was also dissolved in DMSO 10%, PBS 90%). For each time point (15 minutes, 30 minutes, […], 1 hour, 2 hours and 6 hours), 3 mice were sacrificed and blood was collected by cardiac puncture. Thereafter, the plasma level of each compound was measured by mass spectrometry.

[10] = test system: other aneuploid EOC cells; experiment: IncuCyte cell proliferation assay, other aneuploid EOC cell lines; type: cell-based, human; conditions: 80 μM
Procedure: as §1, §4, §3

Ran-GTP [11] = target: T1, Ran-GTP; experiment: Ran-GTP immunofluorescence in TOV112D cells; type: cell-based; conditions: TOV112D cells vs DMSO-treated
Procedure: M36 and R28-treated and control TOV112D cells grown on coverslips were washed with 1×PBS, fixed in 4% paraformaldehyde and permeabilized with 0.25% Triton X-100 (Sigma-Aldrich Inc.). After blocking (4% BSA and 4% FBS in PBS), coverslips were incubated with the monoclonal anti-RanGTP antibody (26915, NewEastBioscences) diluted 1:100 in blocking buffer for 2 hours at room temperature. Subsequently, samples were incubated with Cy-5 secondary antibody (1:500, Life Technologies Inc.) for 1 hour and coverslips were mounted onto slides using Prolong® Gold anti-fade reagent with DAPI (Life Technologies Inc.). Samples were visualized under a Zeiss microscope (Zeiss observer Z1) with a 20× objective.

[12] = test system: prostate cancer cell lines (LNCaP, 22RV1, PC3, DU145); experiment: Cell proliferation, prostate cancer cell lines; type: cell-based
cleaved PARP = experiment: Apoptosis by PARP cleavage (Western blot); type: cell-based, human; conditions: 96 hours after treatment
Procedure: Cells were lysed with RIPA buffer containing protease inhibitors. Whole cell lysates were run through a Bradford assay (Thermo Fisher Scientific) for protein quantification. Around 25-50 μg of proteins were separated onto 12.5% SDS-PAGE and transferred onto nitrocellulose membranes. The resultant blots were probed with Ran (1:10000, sc-271376 Santa Cruz Biotechnology, Dallas, Tex.), cleaved PARP (1:1000, #9541, Cell Signaling Technology Inc., Danvers, Mass.), GAPDH (1:2500, #2118, Cell Signaling Technology Inc.) or beta-actin (1:50000, ab6276, Abcam Inc., Toronto, ON, Canada) primary antibodies overnight at 4° C. then with peroxidase-conjugated secondary antibodies for 2 hours at room temperature. Proteins were detected using enhanced chemiluminescence (Thermo Fisher Scientific).

Compound: NC(=S)[C@@H]1C[C@H](COC(=O)c2ccccc2)[C@@H](OC(=O)c2ccccc2)[C@H]1OC(=O)c1ccccc1 [M26]
- colony formation of ARPE-19 cells (ARPE-19 cells [1]; single dose 10 μM): not normal cells
- colony formation of TOV112D cells (TOV112D cells [2]; single dose 10 μM): specifically inhibited colony formation of EOC
- active Ran-GTP levels (pull-down) (Ran-GTP [3]): marked decrease in Ran-GTP levels
- binding to the immobilized Ran protein ([4]; different compound concentrations, reached saturation): concentration-dependent binding

Compound: NC(=S)[C@H]1O[C@H](COCc2ccccc2F)[C@@H](OCc2ccccc2F)[C@H]1OCc1ccccc1F [M46]
- IC50 (TOV112D cells [2]): 12.5 ± 0.36 µM
- active Ran-GTP levels (pull-down) (Ran-GTP [3]): weaker than that of M36

Compound: Fc1ccc(CNCc2cc(CNCc3ccc(F)cc3)cc(CNCc3ccc(F)cc3)c2)cc1 [M48]
- cell growth of TOV112D (new M36 analogs screen) (TOV112D cells [5]; day 4): completely inhibited cell growth
- IC50 value for the TOV112D cell line by clonogenic assay (TOV112D cells [2]): low IC50 values
- cell growth of ARPE-19 (new M36 analogs screen) (ARPE-19 cells [6]; day 4): completely inhibited cell growth
- effect on normal ARPE-19 cells at low concentrations (ARPE-19 cells [6]): also affected normal ARPE-19 cells

Compound: c1ccc(CNCc2cc(CNCc3ccccc3)cc(CNCc3ccccc3)c2)cc1 [M51]
- effect on breast cancer cell lines [7]: effective in one triple negative breast cancer cell line
- cell growth of TOV112D (new M36 analogs screen) (TOV112D cells [5]; day 4): completely inhibited cell growth
- TOV112D cell growth at low concentrations (TOV112D cells [5]; 0.5, 1, 2.5 μM): inhibited TOV112D cell growth
- IC50 (TOV112D cells [2]): ~0.66 µM
- cell growth of ARPE-19 (new M36 analogs screen) (ARPE-19 cells [6]; day 4): completely inhibited cell growth
- effect on normal ARPE-19 cells at low concentrations (ARPE-19 cells [6]): did not affect normal cells

Compound: COc1ccc(CNCc2cc(CNCc3ccc(OC)cc3)cc(CNCc3ccc(OC)cc3)c2)cc1 [M52]
- cell growth of TOV112D (new M36 analogs screen) (TOV112D cells [5]; day 4): completely inhibited cell growth
- IC50 value for the TOV112D cell line by clonogenic assay (TOV112D cells [2]): low IC50 values
- cell growth of ARPE-19 (new M36 analogs screen) (ARPE-19 cells [6]; day 4): completely inhibited cell growth
- effect on normal ARPE-19 cells at low concentrations (ARPE-19 cells [6]): also affected normal ARPE-19 cells

Compound: COc1ccc(CN(C)Cc2cc(CN(C)Cc3ccc(OC)cc3)cc(CN(C)Cc3ccc(OC)cc3)c2)cc1 [M55]
- cell growth of TOV112D (new M36 analogs screen) (TOV112D cells [5]; day 4): discriminative effect between normal ARPE-19 and aneuploid TOV112D cells
- cell growth of TOV112D, detailed proliferation assay (TOV112D cells [5]; 5, 10, 20 μM): specifically inhibit cell growth of the TOV112D cells even at a low concentration of 5 μM
- IC50 (TOV112D cells [2]): 4.16 µM

Compound: c1ccc(CN2CCN(C(c3ccccc3)C3CCCCC3)CC2)cc1 (stereo not shown) [QR20]
- TOV112D cell proliferation, R20 salts (TOV112D cells [5]; 20, 40, 80 μM): exactly the same activity to inhibit TOV112D cell proliferation
- tolerance [8]: well tolerated
- weight loss [8]: no weight loss
- pharmacokinetics profile based on AUC values [9]: good pharmacokinetics profiles
- ARPE-19 cell proliferation, R20 salts (ARPE-19 cells [6]; 20, 40, 80 μM): without affecting the normal ARPE-19 cells

Compound: c1ccc(CN2CCN(C(c3ccccc3)C3CCCCC3)CC2)cc1 (stereo not shown) [R20]
- effect on normal ARPE-19 cell line in detailed clonogenic assay (ARPE-19 cells [1]): no effect
- cell proliferation of TOV112D (1292 analogs screen) (TOV112D cells [5]; 80 μM, vs normal ARPE-19): greater efficacy in inhibiting cell proliferation
- cell proliferation of other aneuploid EOC cells [10]: inhibited cell proliferation
- IC50 (TOV112D cells [2]): 9.91 ± 0.36 µM
- active Ran-GTP levels (pull-down) (Ran-GTP [3]): concentration-dependent decrease in Ran-GTP levels

Compound: COc1ccc(CN2CCN(Cc3ccc(OC)c(N(C(=O)Nc4cccc(F)c4)C(=O)Nc4cccc(F)c4)c3)CC2)cc1 [R28]
- effect on breast cancer cell lines [7]: effective in both cancer types
- Ran-GTP levels by immunofluorescence (Ran-GTP [11]): very low levels of active Ran-GTP
- proliferation of TOV112D cells (R20 analogs screen) (TOV112D cells [5]; 20, 40 and 80 μM, day 4): more efficient than compound R20 to inhibit proliferation of TOV112D cells
- IC50 (TOV112D cells [2]): 2.99 ± 0.19 µM
- proliferation of ARPE-19 cells (R20 analogs screen) (ARPE-19 cells [6]; 20, 40 and 80 μM, day 4): without affecting normal ARPE-19 cells
- effect on prostate cancer cell lines [12]: effective in both cancer types

Compound: Oc1ccc(CCCCCCc2ccc(O)cc2)cc1 [V188]
- IC50 (TOV112D cells [2]): 7.6 ± 0.32 µM
- Kd ([4]; Ran-GDP immobilized on CM5 chip): 0.38 µM

Compound: COc1ccc(CN2CCN(Cc3ccc(OC)cc3)CC2)cc1 [compound 1292]
- effect on normal ARPE-19 cell line in detailed clonogenic assay (ARPE-19 cells [1]): did not have any effect
- apoptosis (cleaved PARP on Western blot) (cleaved PARP): induction of apoptosis
- cell proliferation of other aneuploid EOC cells [10]: inhibited cell proliferation
- IC50 (TOV112D cells [2]): 15 ± 0.37 µM
- active Ran-GTP levels (pull-down) (Ran-GTP [3]): concentration-dependent decrease in Ran-GTP levels
